Measured values: a melting point compilation (Tetko et al.; mined from patent text by program, amines drawn as free bases though some values may be those of a salt)

melting point | Compound
73 °C | O=C(c1ccc(Cl)cc1)C(O)c1ccc(Cl)cc1 (configuration not stated)
143 to 144 °C | O=C(Nc1ccc(Cl)nc1)c1ccc(Cl)o1
138 to 140 °C | CC(C)C[C@@H](C(=O)OCc1ccccc1)N1C(=O)[C@@H](N2C(=O)OC[C@@H]2c2ccccc2)[C@H]1CCc1ccccc1
105 °C | COc1cccc2cc(C)c(-c3ccccc3)nc12
253 to 254 °C | O=C(O)Cc1c(C(=O)c2ncc[nH]2)[nH]c2ccc(Cl)cc12
141 to 143 °C | Cc1ccc(-c2nc(C)c3ccccc3n2)nc1-c1ccccc1
142 to 144 °C | COC(=O)C1=Cc2cc(-c3ccc(C(C)C)cc3)ccc2S(=O)(=O)CC1
123 to 124 °C | O=C(Nc1ccc(OCCN2CCOCC2)c2ccccc12)c1cc(F)cc(N2CCOCC2)c1
> 280 °C | O=P(O)(O)Cc1ccc(CS(=O)(=O)c2ccccc2)cc1
145 to 146 °C | OCc1c(CO)c(-c2ccc(F)c(F)c2)n2c1Cc1ccccc1C2
162 to 163 °C | COc1ccc(Cl)c(NC(=O)N(C)c2cc(Nc3ccc(N4CCN(C)CC4)cc3)ncn2)c1Cl
204 to 206 °C | O=Cc1ccc(-c2ccc(-c3ccc(C=O)o3)cn2)cc1
212 °C | O=C1c2cccc(NC(=S)Nc3ncccn3)c2C2CCCCN12 (configuration not stated)
150 to 156 °C | CCOC(=O)c1cnn(-c2ccc(Cl)cc2)c1N
136 to 137 °C | COc1cc2c(cc1O)CCCN(Cc1ccccc1OC)C2
136 to 137 °C | NC(=S)N1CCSC1c1ccccc1OCCN1CCN(c2cccc(F)c2)CC1 (configuration not stated)
254 to 264 °C | O=C1C=C(c2c[nH]c3ccc(Cl)cc23)C(=O)N1
135 to 137 °C | COc1cc(Br)cc(-c2ccc3nonc3c2)c1
208 °C | COc1ccc(-c2cc(-c3ccccc3)nc(C)c2C(=O)O)cc1OC
154 °C | CCCn1ncnc1COc1nn2c(-c3ccc(F)cc3)nncc2c1C(C)(C)C
145 to 152 °C | O=C(O)Cc1ccc(OCc2ccccc2)cc1[N+](=O)[O-]
150 °C | O[C@@H]1CN=C(c2ccc(N3CCOCC3)cc2)O[C@H]1c1ccccc1 (racemic)
141 to 143 °C | CC(=Cc1ccccc1Cl)C(O)(Cn1cncn1)c1ccc(Cl)cc1 (configuration not stated)
138 °C | O=C(Nc1ccc2c(c1)OCO2)O[C@@H]1CN=C(c2ccccc2)O[C@H]1c1ccccc1 (racemic)
248 to 249 °C | CN(C)c1cncc(-c2nc(=O)c3ccccc3s2)n1
94 to 96 °C | COCOc1ccc(C=CC(=O)c2ccc(OCc3ccccc3)cc2OC(C)=O)c(OCc2ccccc2)c1

melting point | Compound
142 to 144 °C | COc1ccc(C2=NN(CC(=O)c3ccc(Cl)cc3)C(=O)[C@H]3CCCC[C@@H]23)cc1OC (relative stereo)
80 to 81 °C | O=C(CBr)c1cc(OCc2ccccc2)no1
135 to 136 °C | Oc1ccc(-c2nsnc2Cl)cc1
106 to 107 °C | CC1(CNC(=O)OC(C)(C)C)CN(C(c2ccccc2)c2ccccc2)C1
124 to 126 °C | COC(=O)C(=O)c1ccccc1Nc1c(Cl)cccc1Cl
54 to 56 °C | CCCCCC(=O)C=P(c1ccccc1)(c1ccccc1)c1ccccc1
49.5 to 52 °C | CCC(C(=O)N(C)C)n1cc(Cl)c(-c2ccccc2C)n1 (configuration not stated)
245 to 246 °C | COc1cccc2c(Nc3ccccc3)nc(Cl)nc12
118 to 120 °C | O=C(O)/C=C/c1ccc(Oc2c(-c3ccccc3)c(CCC(F)(F)F)cc3cc(O)ccc23)cc1
150 to 152 °C | CCCCc1nc2c(N)nc(C)c(C)c2n1CC(C)(C)NC(=O)c1ccccc1
231 to 232 °C | N#Cc1cc(-c2c3ccccc3cc3sc4ccccc4c23)ccc1O
177 to 181 °C | CCOc1cc2ncc(C#N)c(Nc3ccc(F)cc3)c2cc1OCC
343 °C | O=C(O)c1cccc2ccc3c4ccccc4[nH]c3c12
55 to 57 °C | NNC1=NCCc2ccccc21
157 °C | COc1ccc(C(=O)Nc2cccc3[nH]ccc23)c(OCC2CO2)c1 (configuration not stated)
119 to 120 °C | CSc1ccc(Oc2ccc([N+](=O)[O-])cc2[N+](=O)[O-])cc1
176 to 178 °C | O=C(Nc1ccc(-n2nc(-c3cccnc3)cc2C(F)F)cc1)c1ccncc1F
108 to 109 °C | Cc1ccc(OCc2c(F)cccc2Cl)c(N)n1
147 to 149 °C | CCc1cccc(C)c1CNc1cc(OC)nc(NC)c1[N+](=O)[O-]
125 to 126 °C | CC(C)(C(=O)C(Oc1ccc(Cl)cc1Cl)n1ccnc1)C(Cl)Cl (configuration not stated)
177 to 179 °C | CC(Oc1ncn(-c2cccc(F)c2)n1)C(=O)O (configuration not stated)
78 to 82 °C | CCn1c(=O)n(Cc2ccccc2)c(=O)c2c(Cl)cc(Cl)cc21
304 to 312 °C | COc1cc(C#N)ccc1-c1nc2cc3c(cc2[nH]1)NC(=O)C3(C)C
180 to 183 °C | COC(=O)NC1=NC(c2cccc(O)c2)CN1 (configuration not stated)
117 to 118 °C | O=C(O)c1cn(-c2ccc(Cl)cc2)c2c(F)c(F)c(F)cc2c1=O
215 to 217 °C | CC(=O)OC1CCc2c(Nc3ccc(C#N)cc3)ncnc21 (configuration not stated)

The next lines start with the molecule.

Compound | melting point
C[N+](C)(CCl)CCCC(=O)[O-] | 100 to 101 °C
O=C(C(=O)N(CC(F)(F)F)S(=O)(=O)C(F)(F)F)N(CC(F)(F)F)S(=O)(=O)C(F)(F)F | 43 to 45 °C
CNS(=O)(=O)c1c(C)cc(OC)cc1C | 131 °C
NCCC1CCC(C(O)(P(=O)(O)O)P(=O)(O)O)CC1 (configuration not stated) | 226 to 230 °C
Cc1cc(Br)cc(C)c1OCC1CCC[N+](C)([O-])C1 (configuration not stated) | 210 to 211 °C
Cc1c(C)c(N2CCN(c3ncccn3)CC2)c(C)c2c1OC(C)(C)C2 | 145 to 147 °C
CCCCCCCCCCc1nc(N(C)C)nc(C)c1O | 71 to 72 °C
O=C1NN=C(C=Cc2ccc([N+](=O)[O-])cc2)CS1 | 231 to 240 °C
Cn1c(=O)c2ncn3c2n(c1=O)CC=C3c1cccc(C(F)(F)F)c1 | 287 to 290 °C
N#Cc1ccc(C(=O)Cl)c(CCl)c1 | 44 to 44.5 °C
CCOC(=O)c1sc(Cl)nc1C(Cl)(Cl)Cl | 42.5 to 43.5 °C
CC(C#N)c1ccc(O)c([N+](=O)[O-])c1 (configuration not stated) | 78 to 81 °C
CC(=O)C1CCC2C3CCC4CC(=O)CCC4(C)C3C(O)CC12C (configuration not stated) | 227 to 233 °C
CNC(=O)[C@H](Cc1ccc(OC)cc1)NC(=O)[C@@H](N)CC(C)C | 128 to 132 °C
CCCC[C@H](NC(=O)[C@H](CC(C)C)NC(=O)c1ccccc1F)C(=O)CSCc1ccco1 | 102 to 103 °C
COc1ccc(F)c(O)c1 | 25 to 26 °C
CC1(CN2CCC(N3CCNC3=O)CC2)OCc2ccccc2-n2cccc21 (configuration not stated) | 197 to 199 °C
O=C(O)C1=CSC2C(=CC3=CN4CCCCCC4N3)C(=O)N12 (configuration not stated) | > 250 °C
O=C(CBr)CC(=O)Nc1cccc(C(F)(F)F)c1 | 66 to 68 °C
COC(=O)c1ccc(N2CCSC2=N)c([N+](=O)[O-])c1 | 156 °C

Compound | melting point
CCCC(CCC)Nc1cc(C(=O)OC)ccc1N1C(=O)CCC1(CO)CO | 139 to 140 °C
N=C(NO)c1nn(-c2c(Cl)cc(C(F)(F)F)cc2Cl)c(C=NO)c1SC(F)(F)F | 68 to 72 °C
COc1cc(Br)cc(C23CC4CC(CC(C4)C2)C3)c1O | 157 to 159 °C
O=C1NC(=O)c2c1cc1ccc3c(c1c2-c1ccncc1)OCO3 | 299 to 302 °C
CC(C)c1cc(C#N)cc(C(=O)Nc2ccn(C)n2)n1 | 174 °C
Cn1nc(S(N)(=O)=O)c2c(F)cccc21 | 221 to 223 °C
CC1=CC(c2ccc(C(F)(F)F)cc2)C2=C(CCCC2=O)N1 (configuration not stated) | 116 to 118 °C
C=CCCC(O)=C(C#N)C(=O)Nc1ccc(C(F)(F)F)cc1 | 145 °C
Cc1cc(-c2cc(C(F)(F)F)n3ncc(C(=O)Nc4nc(C)c(S(N)(=O)=O)s4)c3n2)ccc1C(F)(F)F | 309 °C
Cc1cc(-n2cnnn2)ccc1[N+](=O)[O-] | 166 to 168 °C
CC12CCC(C1)C1(C)Oc3ccc(Br)cc3C21C (configuration not stated) | 120 °C
CC(=O)NC[C@H]1CN(c2ccc(N3CCC4(CC3)C[C@@H]4C#N)c(F)c2)C(=O)O1 | 156 °C
CC(C)(C)c1cc(CS[C@@H]2CCCCCC[C@H]2SCc2cc(C(C)(C)C)cc(C(C)(C)C)c2O)c(O)c(C(C)(C)C)c1 (relative stereo) | 122 to 123 °C
CCOC(=O)C1=C(C)Nc2c(c(C)nn2C)C1c1ccccc1[N+](=O)[O-] (configuration not stated) | 194 to 198 °C
CCc1cc(C(C)(C)C)c(OP2OCC(C)(C)CO2)c(C(C)(C)C)c1CC(=O)O | 134 to 136 °C
CCCCCS(=O)(=O)NC/C=C/c1ccc(OCCOC)cc1Oc1ncc(C(F)(F)F)cc1Cl | 106 °C
CN(C)C(=O)CCCOC(=O)C(OCc1ccc(-c2ccc(Cl)cc2)cc1)(C(F)(F)F)C(F)(F)F | 54 to 55 °C
CC(C)(C(=O)Nc1ccc(Cl)cc1)/C(F)=C\F | 100 °C
O=S1(=O)NCNc2ccc(Br)cc21 | 200 to 204 °C
CC(C)(C)OC(=O)N[C@@H](Cc1ccccc1)C(=O)CCC(=O)O | 108 to 110 °C
